From ChEMBL document CHEMBL4431375, “Stereochemistry Balances Cell Permeability and Solubility in the Naturally Derived Phepropeptin Cyclic Peptides” (ACS Med Chem Lett, 2016) come the findings set out here.

Values after ≈ are worked out from the molar mass of the structure shown.

A short description of data set [1]: Metabolic stability in human plasma assessed as compound degradation at 2 uM measured after 30 mins by LC-ESI/MS analysis. It is filed as ADME, cell-free. Particulars: 0.5 h.
A short description of data set [2]: Apparent passive permeability in MDCK cells expressing MDR1 (unknown origin) at 5 uM measured after 60 mins by LC-MS/MS analysis. Type of data set: ADME, cell-based, Canis lupus familiaris. Conditions: dog.
Data set [3] in a line: Thermodynamic aqueous solubility of the compound at 2 mM and pH 7.4 measured after 20 hrs by HPLC analysis. It is filed as physicochemical. Conditions: aqueous medium, read-out: Therm_solubility.
Data set [4] is described as follows: Octanol-water partition coefficient, log D of the compound at pH 7.4 by shake flask method. It is filed as physicochemical.

As for `CC[C@H](C)[C@@H]1NC(=O)[C@@H](CC(C)C)NC(=O)[C@H](Cc2ccccc2)NC(=O)[C@@H]2CCCN2C(=O)[C@@H](Cc2ccccc2)NC(=O)[C@H](CC(C)C)NC1=O`, the Stability entry in data set [1] is recorded as “Stable”. For the same compound, the apparent permeability (Papp) (in general, the rate of passage across a membrane or cell layer, normalised by area and donor concentration) at 1 h, 5 µM in data set [2] turned out to be 40 ×10⁻⁶ cm/s. Further, the solubility thermodynamic at 20 h, 2000 µM in data set [3] was determined as 10 µg/mL (≈ 13.7 µM).

Turning to `CC(C)C[C@@H]1NC(=O)[C@H](C(C)C)NC(=O)[C@@H](CC(C)C)NC(=O)[C@H](Cc2ccccc2)NC(=O)[C@@H]2CCCN2C(=O)[C@@H](Cc2ccccc2)NC1=O`, the Stability result in data set [1] was “Stable”. In addition, the Papp at 1 h, 5 µM in data set [2] was found to be 39 ×10⁻⁶ cm/s. Also, the logD (commonly lipophilicity at a set pH, counting ionised and neutral species) in data set [4] was 2.33. In addition, the solubility thermodynamic at 20 h, 2000 µM in data set [3] was determined as 50 µg/mL (≈ 69.7 µM).

As for `CC(C)C[C@@H]1NC(=O)[C@H](C(C)C)NC(=O)[C@@H](CC(C)C)NC(=O)[C@H](CC(C)C)NC(=O)[C@H]2CCCN2C(=O)[C@@H](Cc2ccccc2)NC1=O`, the Stability entry in data set [1] is listed as “Stable”. In addition, the Papp at 1 h, 5 µM in data set [2] amounted to 8 ×10⁻⁶ cm/s. Also, in data set [4], the logD is 2.37. Besides, the solubility thermodynamic at 20 h, 2000 µM in data set [3] worked out at 150 µg/mL (≈ 220 µM).

With `CC[C@H](C)[C@@H]1NC(=O)[C@@H](CC(C)C)NC(=O)[C@H](Cc2ccccc2)NC(=O)[C@H]2CCCN2C(=O)[C@@H](Cc2ccccc2)NC(=O)[C@H](CC(C)C)NC1=O`, the Stability entry in data set [1] is on record as “Stable”. The Papp at 1 h, 5 µM in data set [2] was found to be 18 ×10⁻⁶ cm/s. Further, the solubility thermodynamic at 20 h, 2000 µM in data set [3] came out at 30 µg/mL (≈ 41 µM).

In the case of `CC(C)C[C@@H]1NC(=O)[C@H](C(C)C)NC(=O)[C@@H](CC(C)C)NC(=O)[C@H](Cc2ccccc2)NC(=O)[C@H]2CCCN2C(=O)[C@@H](Cc2ccccc2)NC1=O`, the Stability entry in data set [1] is on record as “Stable”. For the same compound, the Papp at 1 h, 5 µM in data set [2] is 11 ×10⁻⁶ cm/s. Besides, the logD in data set [4] worked out at 2.41. Further, the solubility thermodynamic at 20 h, 2000 µM in data set [3] came out at 70 µg/mL (≈ 97.6 µM).

For the compound `CC[C@H](C)[C@@H]1NC(=O)[C@@H](CC(C)C)NC(=O)[C@H](CC(C)C)NC(=O)[C@@H]2CCCN2C(=O)[C@@H](Cc2ccccc2)NC(=O)[C@H](CC(C)C)NC1=O`, in data set [1], the Stability result is listed as “Stable”. Moreover, the Papp at 1 h, 5 µM in data set [2] was found to be 40 ×10⁻⁶ cm/s. Besides, the logD in data set [4] turned out to be 2.63. The solubility thermodynamic at 20 h, 2000 µM in data set [3] came to 60 µg/mL (≈ 86.1 µM).

Consider `CC(C)C[C@@H]1NC(=O)[C@H](C(C)C)NC(=O)[C@@H](CC(C)C)NC(=O)[C@H](CC(C)C)NC(=O)[C@@H]2CCCN2C(=O)[C@@H](Cc2ccccc2)NC1=O`, for which, in data set [1], the Stability result is reported as “Stable”. Further, the Papp at 1 h, 5 µM in data set [2] came to 33 ×10⁻⁶ cm/s. In data set [4], this compound yielded a logD of 2.08. The solubility thermodynamic at 20 h, 2000 µM in data set [3] was determined as 170 µg/mL (≈ 249 µM).

As for `CC[C@H](C)[C@@H]1NC(=O)[C@@H](CC(C)C)NC(=O)[C@H](CC(C)C)NC(=O)[C@H]2CCCN2C(=O)[C@@H](Cc2ccccc2)NC(=O)[C@H](CC(C)C)NC1=O`, the Stability entry in data set [1] is “Stable”. For the same compound, the Papp at 1 h, 5 µM in data set [2] is 15 ×10⁻⁶ cm/s. In data set [4], this compound returned a logD of 2.39. The solubility thermodynamic at 20 h, 2000 µM in data set [3] was found to be 70 µg/mL (≈ 100 µM).
